Measurements published in patent publication US7074768B2, “Modified protein kinase A-specific oligonucleotides and methods of their use” (Idera Pharmaceuticals, Inc., priority 1995, dated 2006).

Assays:
[1] = test system: GEO human colon cancer cells; test: Soft agar growth of GEO cells; format: cell-based
Procedure: (§1) Cells (10^4 cells/well) were seeded in 0.5 ml of 0.3% Difco Noble agar (Difco, Detroit, Mich.) supplemented with complete culture medium. This suspension was layered over 0.5 ml of 0.8% agar-medium base layer in 24 multiwell cluster dishes (Becton Dickinson) and treated with various concentrations of paclitaxel (day 0). The HYB 165 was added after 12 hrs (day 1) and on day 2, 3 and 4. 12 days after the last treatment, cells were stained with nitroblue tetrazolium (Sigma) and colonies larger than 0.05 mm were counted.

Ki67 = test: Histochemical analysis of GEO tumors: Ki67 staining; format: in vivo; conditions: combination of taxol and HYB 165
From the text: (§2) Tumor specimens from the different groups of mice were examined by histochemical analysis at different time points to evaluate the expression of a variety of biological parameters. […] No other treatment was able to affect RIα expression.
TGFα and AR are growth factors which bind to EGFR and control human colon cancer growth through autocrine and paracrine mechanisms (F. Ciardiello and G. Tortora, Clin. Cancer Res. 4:821–828 (1998); D. S. Salomon, Crit. Rev. Oncol. Hematol. 19:183–232 (1995)).

[2] = test system: 1A9PTX10 human ovarian cancer cells; test: Soft agar growth of 1A9PTX10 cells; format: cell-based
Procedure: Cell lines. The 1A9PTX10 cell line, a paclitaxel (PTX)-resistant clone of the human ovarian carcinoma cell line 1A9, was isolated by exposing 1A9 cells to 5 ng/ml PTX in the presence of 5 μg/ml verapamil, a P glicoprotein antagonist. 1A9PTX10 cells were kindly provided by Dr. Giannakakou, NCI Bethesda, Md., USA. Cells were maintained in RPMI medium supplemented with 10% heat-inactivated FBS, 20 mM HEPES, pH 7.4, penicillin (100 UI/ml), streptomycin (100 μg/ml) and 4 mM glutamine (ICN, Irvine, UK) 15 ng/ml PTX and 5 μg/ml verapamil in a humified atmosphere of 95% air and 5% CO2 at 37° C. 7 days before experiments were performed, PTX and verapamil were removed from culture medium.
(§3) Soft agar growth. Cells (10^4 cells/well) were seeded in 0.5 ml of 0.3% Difco Noble agar (Difco, Detroit, Mich.) supplemented with complete culture medium. This suspension was layered over 0.5 ml of 0.8% agar-medium base layer in 24 multiwell cluster dishes (Becton Dickinson) and treated with various concentrations of HYB 165 or HYB508 every 48 hours for three times. After 12 days the cells were stained with nitroblue tetrazolium (Sigma, St. Louis, Mo.) and colonies larger than 0.05 mm were counted.

[3] = test system: ZR75-1 human breast cancer cells; test: Soft agar growth of ZR75-1 cells; format: cell-based; conditions: for inhibition of cell growth: every 48 hours for three times (Examples 24, 25)
Procedure: as §1, with “docetaxel” for “paclitaxel”, “[…] Twelve” for “The HYB 165 was added after 12 hrs (day 1) and on day 2, 3 and 4. 12”
as §1, with “docetaxel” for “paclitaxel”, “[…] Twelve” for “The HYB 165 was added after 12 hrs (day 1) and on day 2, 3 and 4. 12”
as §1, with “Soft agar growth. Cells” for “Cells”, “docetaxel” for “paclitaxel”, “3. Twelve” for “2, 3 and 4. 12”
Soft agar growth. Cells (10^4 cells/well) were seeded in 0.5 ml of 0.3% Difco Noble agar (Difco, Detroit, Mich.) supplemented with complete culture medium. This suspension was layered over 0.5 ml of 0.8% agar-medium base layer in 24 multiwell cluster dishes (Becton Dickinson) and treated with various concentrations of docetaxel (day 0). The HYB 508 was added after 12 hrs and on day 2, 3 and 4. After 12 days the cells were stained with nitroblue tetrazolium (Sigma) and colonies larger than 0.05 mm were counted.
Soft agar growth. Cells (10^4 cells/well) were seeded in 0.5 ml of 0.3% Difco Noble agar (Difco, Detroit, Mich.) supplemented with complete culture medium. […] After 12 days the cells were stained with nitroblue tetrazolium (Sigma) and colonies larger than 0.05 mm were counted.
as §3, with “HYB295” for “HYB508”
as §3

RIα protein = test: Histochemical analysis of GEO tumors: RIα; format: in vivo, human
From the text: as §2

## HYB 165: Hybrid 18-mer mixed backbone antisense to PKA RIα, GCGUGCCTCCTCACUGGC (SEQ ID NO:4), 2-O-methyl ribonucleotides at 5′ and 3′ ends (sugars by position and backbone not given here; 2'-O-methyl ribonucleotides at both ends, mixed backbone)
[1]; HYB 165 0.5 μM after paclitaxel 1 nM
  growth inhibition: 40%
[1]; HYB 165 0.5 μM after paclitaxel 5 nM
  growth inhibition: 62%
[1]; HYB 165 0.5 μM after paclitaxel 10 nM
  growth inhibition: 86%
[1]; HYB 165 0.5 μM alone
  growth inhibition: about 20%
[1]; HYB 165 0.5 μM, sequential combination with different doses of paclitaxel
  cooperative effect of the combination: cooperatively inhibit the growth of GEO cells
Ki67
  cell proliferation by Ki67 staining: almost completely suppressed cell proliferation
[2]; 0.1 μM
  inhibition of cell growth: approximately 5%
[2]; 0.5 μM
  inhibition of cell growth: about 43%
[2]; 1 μM
  inhibition of cell growth: about 70%
[2]; 2.5 μM
  inhibition of cell growth: over 85%
[3]; 0.1 μM
  inhibition of cell growth: approximately 5%
[3]; 1 μM
  inhibition of cell growth: about 34%
[3]; 2.5 μM
  inhibition of cell growth: over 85%
[3]; HYB 165 0.1 μM + C225 0.25 μg/ml (days 1, 3) after docetaxel 0.01 nM (day 0)
  growth inhibition: 93%
[3]; HYB 165 0.1 μM + MAb C225 0.25 μg/ml
  growth inhibition: 37%
[3]; HYB 165 0.1 μM + MAb C225 0.5 μg/ml
  growth inhibition: 65%
[3]; HYB 165 0.1 μM + MAb C225 1 μg/ml
  growth inhibition: 85%
[3]; HYB 165 0.1 μM + MAb C225 2.5 μg/ml
  growth inhibition: 90%
[3]; HYB 165 0.1 μM after docetaxel 0.01 nM
  growth inhibition: 40%
[3]; HYB 165 0.1 μM after docetaxel 0.03 nM
  growth inhibition: 70%
[3]; HYB 165 0.1 μM after docetaxel 0.1 nM
  growth inhibition: 86%
[3]; HYB 165 0.1 μM after docetaxel 0.3 nM
  growth inhibition: 97%
[3]; HYB 165 0.1 μM alone (Example 13)
  growth inhibition: about 8%
[3]; HYB 165 0.1 μM alone (Example 21)
  growth inhibition: about 5%
[3]; HYB 165 0.1 μM alone (Example 23)
  growth inhibition: about 2%
[3]; HYB 165 0.5 μM + MAb C225 0.25 μg/ml
  growth inhibition: 57%
[3]; HYB 165 0.5 μM + MAb C225 0.5 μg/ml
  growth inhibition: 70%
[3]; HYB 165 0.5 μM + MAb C225 1 μg/ml
  growth inhibition: 90%
[3]; HYB 165 0.5 μM + MAb C225 2.5 μg/ml
  growth inhibition: 98%
[3]; HYB 165 0.5 μM after docetaxel 0.01 nM
  growth inhibition: 65%
[3]; HYB 165 0.5 μM after docetaxel 0.03 nM
  growth inhibition: 66%
[3]; HYB 165 0.5 μM after docetaxel 0.3 nM
  growth inhibition: 99%
[3]; HYB 165 0.5 μM after docetaxel 0.1 1 nM
  growth inhibition: 86%
[3]; HYB 165 0.5 μM alone (Example 21)
  growth inhibition: about 15%
[3]; HYB 165 0.5 μM alone (Example 23)
  growth inhibition: about 10%
[3]; sequential combination with different doses of docetaxel
  cooperative effect of the combination: cooperatively inhibits the growth of ZR75-1 cells
[3]; with MAb C225 0.25 μg/ml and docetaxel 0.01 nM
  cooperative effect of the combination: cooperatively inhibit the growth of ZR75-1 cells
[3]; with different doses of MAb C225
  cooperative effect of the combination: cooperatively inhibit the growth of ZR-75-1 cells
RIα protein; in combination with taxol, after two cycles
  expression of RIα protein in the tumor: further increased
RIα protein; single agent, after two cycles of treatment, FIG. 18
  expression of RIα protein in the tumor: inhited expression of the target RIα protein in the tumor
